From paper PMC5702617, “Novel peptide probes to assess the tensional state of fibronectin fibers in cancer” (Nature Communications, 2017)
Residues, ends and D or L forms follow the SMILES beside them. *: point of attachment. X2 = N=c1ccc2c(-c3ccc(C(=O)NCCCCCN4C(=O)CC(*)C4=O)cc3C(=O)O)c3ccc(N)c(S(=O)(=O)O)c3oc-2c1S(=O)(=O)O

Assays:
relaxed Fn fibers = relaxed Fn fibers (Homo sapiens, UniProt P02751); assay: Single Fn fiber binding assay, relaxed fibers; conditions: relaxed fibers (7% strain), 30 fibers from three independent experiments, Student's t test
From the text: (§1) Fn fibers were manually pulled from a concentrated droplet of Fn in PBS (95% unlabeled and 5% Cy5-labeled protein) using a sharp pipette tip and deposited onto a flexible silicone sheet (SMI, USA)[41], rinsed and rehydrated in PBS (schematically shown in Fig. 2c). For affinity measurement Fn fibers were deposited onto a pre-stretched sheet and subsequently relaxed to about a strain of 7% as defined earlier. For measurements of the strain-sensitive binding behavior, fibers were either relaxed or stretched (about 380% strain). […]
Single Fn fiber samples were imaged with an Olympus FV 1000 confocal microscope (Olympus AG, Switzerland) using a 40× water immersion objective with a numerical aperture of 0.9. […] Samples were excited with a 488 nm laser and acceptor (Alexa-546) and donor (Alexa-488) signal was detected in two PMTs using a 12 nm detection bandwidth for donor (514–526 nm) and acceptor (566–578 nm)[25]. […]
Images were analyzed using Fiji-ImageJ and Matlab (MathWorks, Switzerland). For the Fn fiber affinity study, the pixel-wise ratio of FnBPA5-Alexa- 488 signal intensity divided by Fn-Cy5 intensity was calculated for each fiber, if intensities were above a cut-off threshold and below saturation. […] Correction factors for donor bleed through and direct activation of the acceptor used for the analysis were experimentally assessed as shown in Supplementary Fig. 5b, c. […]

[1] = target: fibrillar Fn in human dermal fibroblast ECM (Homo sapiens, UniProt P02751); assay: Binding to ECM assembled by human dermal fibroblasts; assay type: cell-based; conditions: 5 μg ml−1 peptide, 1 h prior to fixation, confocal microscopy
Experimental: Normal human dermal fibroblasts (PromoCell, Vitaris AG, Switzerland) were cultured in alpha minimum essential medium (α-MEM) with 10% fetal bovine serum from BioWest (Nuaillé, France), and split before reaching confluence. Cells were seeded onto Fn-coated 8-well chambered cover glasses (Nunc^TM Lab-Tek^TM Chambered Coverglass, Thermo Fisher Scientific, Reinach, Switzerland) at a density of 50 × 10^3 cells per cm^2 and allowed to attach to the surface before medium exchange to medium containing 50 μg ml^−1 Fn. Dependent on the experiment, a fraction of only 10% of exogenous Fn was double-labeled for FRET analysis to prevent intermolecular FRET. Cells in Figs. 2h and 3 were cultured for 48 h. […] After fixation with a 4% paraformaldehyde solution in PBS, the samples shown in Fig. 3 were stained using DAPI (Invitrogen^TM, Thermo Fisher Scientific, Switzerland) and were further analyzed by means of confocal microscopy, whereas samples shown in Fig. 2h were blocked by 4% donkey serum (Abcam, Switzerland) for 1 h at room temperature and fibronectin was stained using a rabbit polyclonal anti-fibronectin antibody (1:50 diluted, ab23750, Abcam, Switzerland). Samples shown in Fig. 2h were then incubated for 1 h with a donkey anti-rabbit Alexa-546 secondary antibody (Invitrogen^TM, Thermo Fisher Scientific, Switzerland).

[2] = target: relaxed and stretched Fn fibers (Homo sapiens, UniProt P02751); assay: Fn fiber stretch assay, relaxed vs stretched fibers; assay type: binding; conditions: relaxed (7% strain) vs stretched (380% strain) fibers, three independent experiments, p < 0.001
From the text: as §1
Images were analyzed using Fiji-ImageJ and Matlab (MathWorks, Switzerland). For the Fn fiber affinity study, the pixel-wise ratio of FnBPA5-Alexa- 488 signal intensity divided by Fn-Cy5 intensity was calculated for each fiber, if intensities were above a cut-off threshold and below saturation. […] Correction factors for donor bleed through and direct activation of the acceptor used for the analysis were experimentally assessed as shown in Supplementary Fig. 5b, c. […] FRET acceptor channel was corrected for donor bleed through which was measured to be ~20% of the acceptor intensity (Supplementary Fig. 5b). Further analysis such as FRET-Fn-FnBPA5/Fn ratio quantifications were carried out in MatLab.

relaxed Fn fibers, sequence (P02751 32-2477): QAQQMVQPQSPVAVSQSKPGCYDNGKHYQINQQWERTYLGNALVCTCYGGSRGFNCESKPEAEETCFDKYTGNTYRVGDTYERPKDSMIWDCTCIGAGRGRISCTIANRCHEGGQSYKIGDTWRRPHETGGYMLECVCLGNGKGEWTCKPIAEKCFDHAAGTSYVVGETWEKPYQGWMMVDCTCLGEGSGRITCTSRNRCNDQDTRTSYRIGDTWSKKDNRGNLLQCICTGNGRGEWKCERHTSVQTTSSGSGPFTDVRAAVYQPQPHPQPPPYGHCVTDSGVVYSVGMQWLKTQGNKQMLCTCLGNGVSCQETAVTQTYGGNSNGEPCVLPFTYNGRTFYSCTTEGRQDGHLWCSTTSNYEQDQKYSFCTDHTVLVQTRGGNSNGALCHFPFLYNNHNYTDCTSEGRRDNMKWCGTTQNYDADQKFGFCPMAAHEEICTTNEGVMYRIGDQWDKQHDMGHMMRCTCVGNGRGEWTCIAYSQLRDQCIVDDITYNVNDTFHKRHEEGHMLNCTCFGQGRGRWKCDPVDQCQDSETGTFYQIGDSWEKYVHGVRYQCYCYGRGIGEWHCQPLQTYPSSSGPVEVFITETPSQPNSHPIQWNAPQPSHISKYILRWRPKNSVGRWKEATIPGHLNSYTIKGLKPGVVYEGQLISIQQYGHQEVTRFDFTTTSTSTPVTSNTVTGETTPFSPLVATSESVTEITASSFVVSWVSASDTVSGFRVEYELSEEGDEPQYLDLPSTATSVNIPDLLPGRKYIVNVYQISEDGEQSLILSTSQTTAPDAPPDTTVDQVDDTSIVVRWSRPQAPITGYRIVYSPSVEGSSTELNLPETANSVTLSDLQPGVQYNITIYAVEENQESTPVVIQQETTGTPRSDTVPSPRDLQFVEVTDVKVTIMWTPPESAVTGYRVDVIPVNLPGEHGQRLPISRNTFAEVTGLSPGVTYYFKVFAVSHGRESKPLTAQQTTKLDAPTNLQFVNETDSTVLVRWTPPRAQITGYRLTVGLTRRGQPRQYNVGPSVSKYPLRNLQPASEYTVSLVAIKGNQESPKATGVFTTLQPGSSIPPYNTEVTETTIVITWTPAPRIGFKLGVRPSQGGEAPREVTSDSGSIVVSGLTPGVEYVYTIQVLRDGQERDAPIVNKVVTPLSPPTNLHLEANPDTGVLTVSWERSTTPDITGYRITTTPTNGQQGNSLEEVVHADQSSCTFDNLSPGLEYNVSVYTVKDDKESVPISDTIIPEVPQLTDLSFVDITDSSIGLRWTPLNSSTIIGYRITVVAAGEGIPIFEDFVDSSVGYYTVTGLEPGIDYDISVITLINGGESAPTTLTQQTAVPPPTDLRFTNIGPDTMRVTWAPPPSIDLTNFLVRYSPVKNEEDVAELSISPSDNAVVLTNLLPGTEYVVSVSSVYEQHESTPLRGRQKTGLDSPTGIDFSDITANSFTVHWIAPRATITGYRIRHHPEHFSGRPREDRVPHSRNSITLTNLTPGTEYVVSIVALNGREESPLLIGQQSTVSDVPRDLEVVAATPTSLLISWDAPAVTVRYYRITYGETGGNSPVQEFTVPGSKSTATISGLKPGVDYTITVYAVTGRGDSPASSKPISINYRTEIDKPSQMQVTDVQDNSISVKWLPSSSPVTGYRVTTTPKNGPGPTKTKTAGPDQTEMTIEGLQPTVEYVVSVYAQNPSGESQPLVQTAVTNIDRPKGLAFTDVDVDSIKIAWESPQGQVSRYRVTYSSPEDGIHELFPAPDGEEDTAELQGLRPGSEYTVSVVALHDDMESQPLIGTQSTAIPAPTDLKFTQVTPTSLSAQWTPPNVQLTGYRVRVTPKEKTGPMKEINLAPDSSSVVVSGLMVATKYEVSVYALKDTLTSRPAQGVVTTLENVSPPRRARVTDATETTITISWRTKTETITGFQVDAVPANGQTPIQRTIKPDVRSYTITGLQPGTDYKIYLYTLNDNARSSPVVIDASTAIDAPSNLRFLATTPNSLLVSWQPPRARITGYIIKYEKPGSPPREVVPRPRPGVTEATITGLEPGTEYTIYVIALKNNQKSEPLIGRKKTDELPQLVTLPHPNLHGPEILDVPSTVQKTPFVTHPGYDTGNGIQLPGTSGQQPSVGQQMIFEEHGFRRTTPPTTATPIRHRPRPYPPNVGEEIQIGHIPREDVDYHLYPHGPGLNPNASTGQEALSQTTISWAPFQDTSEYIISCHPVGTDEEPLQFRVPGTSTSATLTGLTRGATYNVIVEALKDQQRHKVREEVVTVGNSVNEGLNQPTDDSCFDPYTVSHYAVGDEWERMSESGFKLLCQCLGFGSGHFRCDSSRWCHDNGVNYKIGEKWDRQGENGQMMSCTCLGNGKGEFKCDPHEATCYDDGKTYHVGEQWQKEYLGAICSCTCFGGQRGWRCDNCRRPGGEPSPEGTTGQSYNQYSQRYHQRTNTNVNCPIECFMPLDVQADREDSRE
fibrillar Fn in human dermal fibroblast ECM, sequence (P02751 32-273 limits assumed): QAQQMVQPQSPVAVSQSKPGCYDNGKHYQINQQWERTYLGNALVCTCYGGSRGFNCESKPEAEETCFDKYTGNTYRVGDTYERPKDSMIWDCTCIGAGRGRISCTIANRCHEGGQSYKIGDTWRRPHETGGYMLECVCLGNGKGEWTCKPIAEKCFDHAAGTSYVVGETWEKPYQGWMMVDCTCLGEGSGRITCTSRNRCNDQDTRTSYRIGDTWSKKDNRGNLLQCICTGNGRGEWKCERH
relaxed and stretched Fn fibers, sequence (P02751 32-2477): as the sequence (P02751 32-2477) above

**Q.** `CC[C@H](C)[C@H](NC(=O)CNC(=O)[C@H](CCCCN)NC(=O)[C@@H](NC(=O)[C@H](CO)NC(=O)[C@H](CCC(=O)O)NC(=O)[C@H](CCC(=O)O)NC(=O)[C@H](CC(=O)O)NC(=O)[C@H](Cc1ccccc1)NC(=O)[C@H](CCC(=O)O)NC(=O)[C@@H](NC(=O)[C@H](CC(C)C)NC(=O)[C@H](CC(N)=O)NC(=O)[C@H](CO)NC(=O)[C@H](CCC(=O)O)NC(=O)[C@@H](NC(=O)[C@@H](NC(=O)[C@@H](NC(=O)[C@H](CCC(N)=O)NC(=O)CNC(=O)CNC(=O)CNC(=O)[C@@H](N)CSC1CC(=O)N(CCCCCNC(=O)c2ccc(-c3c4ccc(=N)c(S(=O)(=O)O)c-4oc4c(S(=O)(=O)O)c(N)ccc34)c(C(=O)O)c2)C1=O)C(C)C)[C@@H](C)O)[C@@H](C)O)C(C)C)[C@@H](C)O)C(=O)N[C@H](C(=O)N[C@H](C(=O)NCC(=O)N[C@@H](C)C(=O)N[C@H](C(=O)N[C@@H](CO)C(=O)N[C@@H](CC(=O)O)C(=O)N[C@@H](Cc1c[nH]cn1)C(=O)N[C@H](C(=O)N[C@H](C(=O)N[C@H](C(=O)N[C@@H](CCC(=O)O)C(=O)N[C@@H](CC(=O)O)C(=O)N[C@H](C(=O)N[C@@H](CCCCN)C(=O)O)[C@@H](C)O)C(C)C)[C@@H](C)O)[C@@H](C)O)C(C)C)[C@@H](C)O)C(C)C` (stereo partly shown) [FnBPA5-Alexa488] (H-C(X2)GGGQVTTESNLVEFDEESTKGIVTGAVSDHTTVEDTK-OH; N-terminus and C-terminus assumed) was tested. Which “binding to single relaxed Fn fibers (words)” value (relaxed Fn fibers) did it give?
**A.** significant higher binding

**Q.** What about the “binding to single relaxed Fn fibers (words)” value (relaxed Fn fibers; listed as FnBPA5-Alexa-488) of the same molecule?
**A.** significantly higher binding to Fn fibers than the scrambled control peptide

**Q.** What about the “binding to fibroblast-assembled ECM” value [1] of the same molecule?
**A.** Specific binding to fibrillar Fn

**Q.** And the “strain-dependent binding, FnBPA5/Fn ratio” value [2]?
**A.** significantly higher peptide binding of FnBPA5 to relaxed Fn fibers compared to stretched fibers
